Measurements taken from patent publication US11180462B2, “Microbiocidal oxadiazole derivatives” (SYNGENTA PARTICIPATIONS AG, priority 2015, dated 2021).

Experiments:
[1] = tested on: Puccinia recondita f. Sp. Tritici; assay: Fungicidal activity against Puccinia recondita f. sp. tritici / wheat / leaf disc preventative (brown rust); assay type: in vivo; settings: foliar, 200 ppm in the applied formulation, wheat leaf segments, preventative, compared to untreated control leaf disks, read-out: disease control
Method in brief: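 Preventative leaf-segment test, wheat cv. Kanzler on water agar. Spray compound at 200 ppm, inoculate with spores 1 day later; 19° C., 75% rh, 12/12 h light. Read-out: % disease control vs untreated, 7 to 9 days after application.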

[2] = tested on: Glomerella lagenarium (Colletotrichum lagenarium); assay: Fungicidal activity against Glomerella lagenarium (Colletotrichum lagenarium) liquid culture / cucumber / preventative (anthracnose); assay type: cell-based; settings: Colletotrichum orbiculare; 20 ppm in the applied formulation; liquid culture (PDB), growth inhibition measured photometrically after 3 to 4 days; compared to untreated control; read-out: disease control
Method in brief: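 Photometric read-out of fungal growth after 2–7 days, expressed as percent antifungal activity versus untreated check. Cryo-stored conidia in PDB; compound at 20 ppm; dark, 24 °C, 96% RH.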

[3] = tested on: Puccinia recondita f. Sp. Tritici; assay: Fungicidal activity against Puccinia recondita f. sp. tritici / wheat / leaf disc curative (brown rust); assay type: in vivo; settings: foliar, 24 h, 200 ppm in the applied formulation, wheat leaf segments, curative (applied 1 day after inoculation), compared to untreated control leaf disks, read-out: disease control
Description: Leaf disks or leaf segments of various plant species are cut from plants grown in a greenhouse. The cut leaf disks or segments are placed in multiwell plates (24-well format) onto water agar. The leaf disks are sprayed with a test solution before (preventative) or after (curative) inoculation. Compounds to be tested are prepared as DMSO solutions (max. 10 mg/ml) which are diluted to the appropriate concentration with 0.025% Tween20 just before spraying. The inoculated leaf disks or segments are incubated under defined conditions (temperature, relative humidity, light, etc.) according to the respective test system. A single evaluation of disease level is carried out 3 to 14 days after inoculation, depending on the pathosystem. Percent disease control relative to the untreated check leaf disks or segments is then calculated.
Fungicidal Activity Against Puccinia recondita f. Sp. Tritici/Wheat/Leaf Disc Curative (Brown Rust)
Wheat leaf segments cv. Kanzler are placed on agar in multiwell plates (24-well format). The leaf segments are then inoculated with a spore suspension of the fungus. Plates were stored in darkness at 19° C. and 75% relative humidity. The formulated test compound diluted in water was applied 1 day after inoculation. The leaf segments were incubated at 19° C. and 75% relative humidity under a light regime of 12 hours light/12 hours darkness in a climate cabinet and the activity of a compound was assessed as percent disease control compared to untreated when an appropriate level of disease damage appears in untreated check leaf segments (6 to 8 days after application).
The following compounds at 200 ppm in the applied formulation give at least 80% disease control in this test when compared to untreated control leaf disks under the same conditions, which show extensive disease development.

| SMILES | pest or weed control at 200 ppm [1] [%] | inhibition of growth at 20 ppm [2] [%] | pest or weed control at 200 ppm [3] [%] |
| --- | --- | --- | --- |
| O=C(C1CCC1)N(Cc1ccc(-c2noc(C(F)(F)F)n2)cc1)Cc1ccco1 [Compound 1.458, N-(2-furylmethyl)-N-[[4-[5-(trifluoromethyl)-1,2,4-oxadiazol-3-yl]phenyl]methyl]-cyclobutane-carboxamide] | ≥ 80 | ≥ 80 | ≥ 80 |
| CCC(C)N(Cc1ccc(-c2noc(C(F)(F)F)n2)cc1)C(=O)C1CCCN1C(C)=O (centres unmarked) [Compound 1.400, 1-acetyl-N-sec-butyl-N-[[4-[5-(trifluoromethyl)-1,2,4-oxadiazol-3-yl]phenyl]methyl]-pyrrolidine-2-carboxamide] | ≥ 80 | ≥ 80 | ≥ 80 |
| CCN(CC)C(=O)N(Cc1ccc(-c2noc(C(F)(F)F)n2)cc1)OC [Compound 3.64, 1,1-diethyl-3-methoxy-3-[[4-[5-(trifluoromethyl)-1,2,4-oxadiazol-3-yl]phenyl]methyl]urea] | ≥ 80 | ≥ 80 | ≥ 80 |
| CON(Cc1ccc(-c2noc(C(F)(F)F)n2)cc1)C(=O)OC(C)C [Compound 2.14, isopropyl N-methoxy-N-[[4-[5-(trifluoromethyl)-1,2,4-oxadiazol-3-yl]phenyl]methyl]-carbamate] | ≥ 80 | ≥ 80 | ≥ 80 |
| CCN(Cc1ccc(-c2noc(C(F)(F)F)n2)cc1)C(=O)N(CCOC)CCOC [Compound 3.102, 1-ethyl-3,3-bis(2-methoxyethyl)-1-[[4-[5-(trifluoromethyl)-1,2,4-oxadiazol-3-yl]phenyl]methyl]urea] | ≥ 80 | ≥ 80 | ≥ 80 |
| COCCN(CCOC)C(=O)N(C)Cc1ccc(-c2noc(C(F)(F)F)n2)cc1 [Compound 3.84, 1,1-bis(2-methoxyethyl)-3-methyl-3-[[4-[5-(trifluoromethyl)-1,2,4-oxadiazol-3-yl]phenyl]methyl]urea] | ≥ 80 | ≥ 80 | ≥ 80 |
| CCC(COC)C(=O)N(CCOC)Cc1ccc(-c2noc(C(F)(F)F)n2)cc1 (centres unmarked) [Compound 1.353, N-(2-methoxyethyl)-2-(methoxymethyl)-N-[[4-[5-(trifluoromethyl)-1,2,4-oxadiazol-3-yl]phenyl]methyl]-butanamide] | ≥ 80 |  | ≥ 80 |
| C#CCN(Cc1ccc(-c2noc(C(F)(F)F)n2)cc1)C(=O)C1CCSCC1 [Compound 1.188, N-prop-2-ynyl-N-[[4-[5-(trifluoromethyl)-1,2,4-oxadiazol-3-yl]phenyl]methyl]-tetrahydrothiopyran-4-carboxamide] | ≥ 80 |  | ≥ 80 |
| COCCN(Cc1ccc(-c2noc(C(F)(F)F)n2)cc1)C(=O)C1(F)CC1 [Compound 1.349, 1-fluoro-N-(2-methoxyethyl)-N-[[4-[5-(trifluoromethyl)-1,2,4-oxadiazol-3-yl]phenyl]methyl]-cyctopropane-carboxamide] |  | ≥ 80 | ≥ 80 |
| CON(Cc1ccc(-c2noc(C(F)(F)F)n2)cc1)C(=O)c1cccc(C(F)(F)F)c1 [Compound 1.13, N-methoxy-3-(trifluoromethyl)-N-[[4-[5-(trifluoromethyl)-1,2,4-oxadiazol-3-yl]phenyl]methyl]-benzamide] |  | ≥ 80 | ≥ 80 |
| CCN(Cc1ccc(-c2noc(C(F)(F)F)n2)cc1)C(=O)N(C)CC(=O)NC [Compound 3.86, 2-[[ethyl-[[4-[5-(trifluoromethyl)-1,2,4-oxadiazol-3-yl]phenyl]methyl]-carbamoyl]-methyl-amino]-N-methyl-acetamide] | ≥ 80 |  | ≥ 80 |
| CCCON(Cc1ccc(-c2noc(C(F)(F)F)n2)cc1)C(=O)C1OCCO1 [Compound 1.317, N-propoxy-N-[[4-[5-(trifluoromethyl)-1,2,4-oxadiazol-3-yl]phenyl]methyl]-1,3-dioxolane-2-carboxamide] |  | ≥ 80 | ≥ 80 |
| CON(Cc1ccc(-c2noc(C(F)(F)F)n2)nc1)C(=O)C1CCCO1 (centres unmarked) [Compound 1.789, N-methoxy-N-[[6-[5-(trifluoromethyl)-1,2,4-oxadiazol-3-yl]-3-pyridyl]methyl]-tetrahydrofuran-2-carboxamide] | ≥ 80 |  | ≥ 80 |
| CON(Cc1ccc(-c2noc(C(F)(F)F)n2)cc1)C(=O)Cc1ccc(C#N)cc1 [Compound 1.52, 2-(4-cyanophenyl)-N-methoxy-N-[[4-[5-(trifluoromethyl)-1,2,4-oxadiazol-3-yl]phenyl]methyl]-acetamide] | ≥ 80 |  | ≥ 80 |
| CCN(Cc1ccc(-c2noc(C(F)(F)F)n2)cc1)C(=O)N(CC)CC1CC1 [Compound 3.100, 1-(cyclopropylmethyl)-1,3-diethyl-3-[[4-[5-(trifluoromethyl)-1,2,4-oxadiazol-3-yl]phenyl]methyl]urea] |  | ≥ 80 | ≥ 80 |
| O=C(C1CC1F)N(Cc1ccc(-c2noc(C(F)(F)F)n2)cc1)CC1CCCO1 (centres unmarked) [Compound 1.445, 2-fluoro-N-(tetrahydrofuran-2-ylmethyl)-N-[[4-[5-(trifluoromethyl)-1,2,4-oxadiazol-3-yl]phenyl]methyl]-cyclopropane-carboxamide] |  | ≥ 80 | ≥ 80 |
| COCCN(Cc1ccc(-c2noc(C(F)(F)F)n2)cc1)C(=O)C1CCCN1C(C)=O (centres unmarked) [Compound 1.357, 1-acetyl-N-(2-methoxyethyl)-N-[[4-[5-(trifluoromethyl)-1,2,4-oxadiazol-3-yl]phenyl]methyl]-pyrrolidine-2-carboxamide] | ≥ 80 |  | ≥ 80 |
| CON(Cc1ccc(-c2noc(C(F)(F)F)n2)cc1)C(=O)CN [Compound 1.788, [2-[methoxy-[[4-[5-(trifluoromethyl)-1,2,4-oxadiazol-3-yl]phenyl]methyl]-amino]-2-oxo-ethyl]ammonium; chloride] | ≥ 80 |  | ≥ 80 |
| CON(Cc1ccc(-c2noc(C(F)(F)F)n2)cc1)C(=O)OCCF [Compound 2.15, 2-fluoroethyl N-methoxy-N-[[4-[5-(trifluoromethyl)-1,2,4-oxadiazol-3-yl]phenyl]methyl]-carbamate] |  | ≥ 80 | ≥ 80 |
| CNC(=O)CN(C)C(=O)N(C)Cc1ccc(-c2noc(C(F)(F)F)n2)cc1 [Compound 3.68, N-methyl-2-[methyl-[methyl-[[4-[5-(trifluoromethyl)-1,2,4-oxadiazol-3-yl]phenyl]methyl]-carbamoyl]-amino]acetamide] | ≥ 80 |  | ≥ 80 |
| C#CCN(Cc1ccc(-c2noc(C(F)(F)F)n2)cc1)C(=O)C(C)(C)CCC [Compound 1.153, 2,2-dimethyl-N-prop-2-ynyl-N-[[4-[5-(trifluoromethyl)-1,2,4-oxadiazol-3-yl]phenyl]methyl]-pentanamide] |  | ≥ 80 | ≥ 80 |
| C#CCOC(=O)N(Cc1ccc(-c2noc(C(F)(F)F)n2)cc1)OC [Compound 2.20, prop-2-ynyl N-methoxy-N-[[4-[5-(trifluoromethyl)-1,2,4-oxadiazol-3-yl]phenyl]methyl]-carbamate] |  | ≥ 80 | ≥ 80 |
| C=CCOC(=O)N(Cc1ccc(-c2noc(C(F)(F)F)n2)cc1)OC [Compound 2.11, allyl N-methoxy-N-[[4-[5-(trifluoromethyl)-1,2,4-oxadiazol-3-yl]phenyl]methyl]-carbamate] |  | ≥ 80 | ≥ 80 |
| O=C(C1CCCC1)N(Cc1ccc(-c2noc(C(F)(F)F)n2)cc1)Cc1ccco1 [Compound 1.455, N-(2-furylmethyl)-N-[[4-[5-(trifluoromethyl)-1,2,4-oxadiazol-3-yl]phenyl]methyl]-cyclopentane-carboxamide] |  | ≥ 80 | ≥ 80 |
| CON(Cc1ccc(-c2noc(C(F)(F)F)n2)cc1)C(=O)c1cccc2ccccc12 [Compound 1.37] |  | ≥ 80 | ≥ 80 |
